We go through one molecule from patent publication US20030040531A1, “Remedies for reperfusion injury containing integrin alphanubeta 3 antagonist” (priority 2000, published 2003).

Common to all, as to assay type: cell-based
The test system of experiment [1] is rat vascular smooth muscle cells. Description: adhesion of rat vascular smooth muscle cells to rat vitronectin. The settings on record: read-out: concentration (IC50) necessary for inhibition of adhesion to vitronectin. The method, then:
(§1) The adhesion of vascular smooth muscle cells to immobilized human vitronectin was measured in accordance with the method of Liaw et al. (L. Liaw et al., Circ. Res., 74, 214 (1994)). A Dulbecco's phosphate buffer (Dulbecco's PBS(−)) solution of human serum-derived vitronectin adjusted to a concentration of 4 μg/ml was first added to wells (50 μl/well) of a microplate (Maxisorp), and a reaction for immobilization was allowed to proceed at 4° C. overnight. After washing twice with 150 μl of Dulbecco's PBS (−), Dulbecco's PBS (−) containing 10 mg/ml of bovine serum albumin was added, followed by blocking at 37° C. for one hr. The microplate was then washed twice with 150 μl of Dulbecco's PBS (−) to prepare an assay plate.
Next, 50 μl of a Dulbecco's modified Eagle's basal medium containing 20 mg/ml of bovine serum albumin with a medicament added thereto was added to the wells of the human vitronectin-coated assay microplate, followed by pre-cultivation under 5% carbon dioxide at 37° C. for 10 min. Thereafter, 50 μl of the Dulbecco's modified Eagle's basal medium with human vascular smooth muscle cells suspended therein was added thereto, and the plate was thoroughly stirred. A reaction was allowed to proceed under 5% carbon dioxide at 37° C. for 90 min. The reaction solution containing non-adherent cells was then removed, followed by washing three times with Dulbecco's PBS (−). For the adhered cells, 100 μl of Dulbecco's PBS (−) containing 4% paraformaldehyde was added, and immobilization was allowed to proceed at room temperature for 10 min. Next, 100 μl of a Dulbecco's PBS (−) containing 0.5% Toluidine Blue and 4% paraformaldehyde was added, and staining was allowed to proceed at room temperature for 5 min, followed by thorough washing with distilled water. The inside of the wells was then air-dried, and 1% aqueous sodium dodecylsulfate solution was then added to perform cytolysis. The absorbance of the microplate thus obtained was measured at 595 nm. […] The inhibition was calculated by the following equation. IC50 was determined from a primary regression line of the logarithm of each concentration of the test compound and the logarithm of (100−inhibition)/inhibition. [formula]
Rat vascular smooth muscle cells were cultivated in a medium composed of a mixture of equal amounts of 15% fetal calf serum-containing 199 medium and RPMI 1640 medium. Separately, hamster and dog vascular smooth muscle cells were cultivated in a 10% fetal calf serum-containing Dulbecco's modified Eagle's basal medium. These cultivated cells were then suspended in a Dulbecco's modified Eagle's basal medium to concentrations of 3×10^5 cells/ml (rat), 3×10^5 cells/ml (hamster), and 4×10^5 cells /ml (dog), respectively. Rat vitronectin was used in the adhesion system of rats and hamsters, while bovine vitronectin was used in the adhesion system of dogs.

Experiment [2] deals with platelet aggregation. Description: inhibition of platelet aggregation, rat. Particulars: read-out: concentration (IC50) necessary for inhibition of platelet aggregation.
Experiment [3] concerns hamster vascular smooth muscle cells. The experiment is described as follows: adhesion of hamster vascular smooth muscle cells to rat vitronectin. Particulars: Mesocricetus auratus, read-out: concentration (IC50) necessary for inhibition of adhesion to vitronectin. Here is the method: as §1
Next, 50 μl of a Dulbecco's modified Eagle's basal medium containing 20 mg/ml of bovine serum albumin with a medicament added thereto was added to the wells of the human vitronectin-coated assay microplate, followed by pre-cultivation under 5% carbon dioxide at 37° C. for 10 min. […] The absorbance of the microplate thus obtained was measured at 595 nm. […] The inhibition was calculated by the following equation. IC50 was determined from a primary regression line of the logarithm of each concentration of the test compound and the logarithm of (100−inhibition)/inhibition. […]

Bounds are passed on as bounds.

Regarding `O=C(NCC(NS(=O)(=O)c1ccccc1)C(=O)O)c1ccc(N2CCC(NC3=NCCCN3)CC2)c(F)c1` (stereo in doubt) [formula (IV), (2S)-Benzenesulfonylamino-3-[3-fluoro-4-{4-(1,4,5,6-tetrahydropyrimidin-2-ylamino)-piperidin-1-yl}benzoylamino]propionic Acid], the IC50 was 230 nM in experiment [1], greater than 100000 nM in experiment [2] and 730 nM in experiment [3].
